{
  "source": "patent US20110184018A1",
  "about": "“METHOD FOR TREATING PERIPHERAL NEUROPATHIC PAIN” (LOHOCLA RESEARCH CORPORATION, priority 2005, published 2011)",
  "key": {"[1]": {"biological_target": "T1, glycine recognition site of the NMDA receptor complex (Rattus norvegicus, UniProt P35439)", "T1 construct": "The telencephalon (cerebral cortex, hippocampus, and striatum) was dissected and homogenized; from tissue; host or cells: rat telencephalon membranes (cerebral cortex, hippocampus, striatum), Triton X-100 treated", "experiment": "[3H]5,7-DCKA binding assay", "conditions": "rat cortical membranes; none = no displacement at 100 μM", "procedure": "General receptor-binding procedures. Male Sprague-Dawley rats were decapitated and their brains removed rapidly. The telencephalon (cerebral cortex, hippocampus, and striatum) was dissected and homogenized in 20 volumes of ice-cold 0.32 M sucrose, 20 mM HEPES-KOH (pH 7.2 at room temperature) containing protease inhibitors ([…], 5 mg/mL antipain, 20 mg/mL soybean trypsin inhibitor, 500 μM benzamidine, […] aprotinin, and 500 μM phenylmethylsulfonyl fluoride) with a motor driven glass-TEFLON® fluorocarbon homogenizer (8-10 strokes at setting 1). The homogenate was centrifuged at 800 g for 10 minutes. The pellet was discarded and the supernatant was centrifuged at 20,000 g for 20 minutes. The resulting pellet was resuspended in 20 volumes of distilled water containing 500 μM benzamidine and centrifuged for 20 minutes at 7500 g. Then the supernatant and buffy coat were centrifuged three times (51,500 g for 20 minutes) in the presence of distilled water containing 500 μM benzamidine. All centrifugation steps were carried out at 4° C. The final pellet was frozen rapidly at −80° C.\nOn the day of the assay, the pelleted membranes were resuspended in 20 volumes of 50 mM HEPES-KOH buffer, pH 7.4, and incubated for 20 minutes at 37° C. followed by centrifugation (51,500 g for 20 minutes). Membranes were then resuspended in 50 mM HEPES-KOH buffer (pH 7.8) containing 0.08% Triton X-100. After stirring for 30 minutes at 4° C., the membranes were pelleted by centrifugation (100,000 g for 20 minutes). The membranes were then washed twice by resuspension in the buffer appropriate for the binding assay and centrifugation (100,000 g for 20 minutes). The final pellet was suspended in assay buffer. The amount of protein in the final membrane preparation was determined with the bicinchoninic acid method (BCA; Pierce Chemical Co., Rockford, Ill.). The final protein concentration used for our studies was 300 to 600 μg/mL. Receptor-binding protocols described below were adapted from published procedures. For all assays, the samples, all in duplicate or triplicate, were placed into scintillation vials containing 5.5 mL of scintillation liquid (Ultima Gold; Packard Instrument Co., Inc., Meriden, Conn.) and the retained radioactivity was determined by conventional scintillation spectroscopy with a Beckman TA-6000 scintillation counter. Radio-ligands were purchased from DuPont-NEN (Boston, Mass.).\n[^3H]5,7-Dichlorokynurenic acid (5,7-DCKA)-binding assay. The glycine recognition site of the NMDA receptor complex was labeled with the competitive antagonist [^3H]5,7-dichlorokynurenic acid (5,7-DCKA). […]\nData Analysis. The data were analyzed with SigmaPlot 5.0 and SigmaStat 2.0 (Jandel Scientific, Corte Madera, Calif.) software. […]"}, "[2]": {"biological_target": "voltage sensitive sodium channel (neurotoxin receptor Site 2)", "experiment": "[3H]BTX binding assay", "conditions": "rat cortical synaptosomes"}, "DBA/2 mice": {"tested_on": "DBA/2 mice", "experiment": "Audiogenic seizures", "assay_type": "in vivo, mouse", "conditions": "i.p., 100 and 500 mg/kg", "procedure": "Audiogenic Seizures. Male DBA/2J mice (20-22 days old; 8-12 g) were used to evaluate the effects of DCUK-OMe in an animal model of partial seizures. Mice were dosed (i.p.) with vehicle (5% TWEEN 80/0.5% methylcellulose), 100 mg/kg DCUK-OMe, or 500 mg/kg DCUK-OMe, 30 minutes before noise stimulation. Mice were placed into a cylindrical Plexiglas testing chamber (15×50 cm, diameter 3 height) enclosed in a sound-attenuated box. After a 15- to 20-second habituation period, a high-intensity auditory stimulus (ringing doorbell; 12-16 kHz, 109 db) was activated for 30 seconds or until tonic hindlimb extension occurred. The seizure response in these mice is characterized by a progression of a wild running behavior, followed by loss of righting and clonus of the forelimbs, followed by tonic hindlimb extension, and finally respiratory arrest."}, "[3]": {"experiment": "Solubility limit in aqueous assay buffers", "assay_type": "physicochemical", "conditions": "aqueous assay buffers (incubation or bath solutions), aqueous buffer, kinetic from dmso stock, DMSO 0.2 to 1%, read-out: concentrations that could not be tested due to limited solubility in aqueous buffers", "procedure": "Drugs. For all in vitro assays, stock solutions of DCUKA or DCUK-OMe were prepared fresh daily in dimethylsulfoxide (DMSO) then diluted into the incubation or bath solutions with sonication to the desired concentrations for experiments. Due to their limited solubility in aqueous buffers, DCUKA concentrations >300 μM and DCUK-OMe concentrations >100 μM could not be tested. In those assays where high ionic strength buffers were used, i.e., [^3H]batrachiotoxin (BTX) binding in depolarized synaptosomes, concentrations >50 μM could not be tested. The final concentration of DMSO in the assays ranged from 0.2 to 1%. In all assays, drug effects were compared with effects measured in the presence of the identical concentration of DMSO without drug."}, "[4]": {"biological_target": "rat brain type IIA Na+ channel (Nav1.2) (Rattus norvegicus, UniProt P04775)", "sequence (P04775 whole entry)": "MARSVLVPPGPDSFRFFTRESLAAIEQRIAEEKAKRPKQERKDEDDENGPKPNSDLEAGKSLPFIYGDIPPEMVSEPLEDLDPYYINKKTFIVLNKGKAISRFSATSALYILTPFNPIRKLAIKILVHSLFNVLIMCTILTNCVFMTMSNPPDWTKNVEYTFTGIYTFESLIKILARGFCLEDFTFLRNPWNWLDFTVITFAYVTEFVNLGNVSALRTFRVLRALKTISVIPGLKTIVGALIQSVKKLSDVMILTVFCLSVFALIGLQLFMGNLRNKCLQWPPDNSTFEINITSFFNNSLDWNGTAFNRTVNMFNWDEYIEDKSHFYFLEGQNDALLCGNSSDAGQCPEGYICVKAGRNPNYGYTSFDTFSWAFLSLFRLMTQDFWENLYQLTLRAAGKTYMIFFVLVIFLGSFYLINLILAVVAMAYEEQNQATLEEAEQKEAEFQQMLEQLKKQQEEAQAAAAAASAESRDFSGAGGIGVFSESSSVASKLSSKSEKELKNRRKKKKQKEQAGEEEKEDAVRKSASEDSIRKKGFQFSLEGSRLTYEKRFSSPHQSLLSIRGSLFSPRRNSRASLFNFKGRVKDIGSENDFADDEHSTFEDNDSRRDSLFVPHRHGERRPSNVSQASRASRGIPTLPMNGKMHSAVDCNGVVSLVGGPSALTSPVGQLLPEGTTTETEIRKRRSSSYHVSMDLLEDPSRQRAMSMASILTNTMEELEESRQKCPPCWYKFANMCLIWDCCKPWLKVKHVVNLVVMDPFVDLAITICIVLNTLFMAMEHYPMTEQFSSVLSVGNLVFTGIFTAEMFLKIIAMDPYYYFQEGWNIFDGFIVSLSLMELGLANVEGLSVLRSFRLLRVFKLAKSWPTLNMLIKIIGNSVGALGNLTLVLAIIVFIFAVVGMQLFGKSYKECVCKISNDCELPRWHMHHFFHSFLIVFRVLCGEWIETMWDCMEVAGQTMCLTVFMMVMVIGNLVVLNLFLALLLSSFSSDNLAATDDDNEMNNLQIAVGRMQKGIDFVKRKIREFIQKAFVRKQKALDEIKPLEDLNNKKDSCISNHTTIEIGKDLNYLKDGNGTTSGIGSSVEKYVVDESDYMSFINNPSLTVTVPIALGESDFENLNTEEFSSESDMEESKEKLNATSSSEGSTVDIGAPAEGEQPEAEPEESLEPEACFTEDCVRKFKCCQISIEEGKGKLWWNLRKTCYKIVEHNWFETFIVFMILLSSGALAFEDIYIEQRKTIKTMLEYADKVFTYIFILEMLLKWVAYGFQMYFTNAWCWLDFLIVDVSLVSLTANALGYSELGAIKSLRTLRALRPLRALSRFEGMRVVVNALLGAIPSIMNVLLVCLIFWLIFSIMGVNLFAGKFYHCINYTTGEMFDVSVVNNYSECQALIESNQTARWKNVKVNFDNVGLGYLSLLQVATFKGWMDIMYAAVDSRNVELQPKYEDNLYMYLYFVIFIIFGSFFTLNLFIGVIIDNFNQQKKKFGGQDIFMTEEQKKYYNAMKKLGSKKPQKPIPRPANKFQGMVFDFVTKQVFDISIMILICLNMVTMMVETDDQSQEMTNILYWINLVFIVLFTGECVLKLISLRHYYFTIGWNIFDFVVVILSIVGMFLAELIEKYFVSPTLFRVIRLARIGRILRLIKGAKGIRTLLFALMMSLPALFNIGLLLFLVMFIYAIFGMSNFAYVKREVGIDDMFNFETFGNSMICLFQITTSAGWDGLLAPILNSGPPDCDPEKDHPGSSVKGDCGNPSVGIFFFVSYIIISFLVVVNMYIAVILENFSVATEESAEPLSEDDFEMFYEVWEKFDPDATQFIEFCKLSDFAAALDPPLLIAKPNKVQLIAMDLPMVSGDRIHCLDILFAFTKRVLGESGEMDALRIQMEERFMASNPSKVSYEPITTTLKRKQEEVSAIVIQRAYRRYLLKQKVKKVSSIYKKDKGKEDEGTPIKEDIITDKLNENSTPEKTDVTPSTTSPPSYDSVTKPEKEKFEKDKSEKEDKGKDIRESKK", "experiment": "Whole-cell patch clamp recordings of Na+ currents in CNaIIA-1 cells", "assay_type": "cell-based"}, "CB1 receptor": {"biological_target": "T2, CB1 receptor (Homo sapiens, UniProt P21554)", "T2 construct": "expressed in transfected cells; host or cells: HEK293 cells (ATCC), calcium phosphate transfection", "T2 sequence (P21554 whole entry)": "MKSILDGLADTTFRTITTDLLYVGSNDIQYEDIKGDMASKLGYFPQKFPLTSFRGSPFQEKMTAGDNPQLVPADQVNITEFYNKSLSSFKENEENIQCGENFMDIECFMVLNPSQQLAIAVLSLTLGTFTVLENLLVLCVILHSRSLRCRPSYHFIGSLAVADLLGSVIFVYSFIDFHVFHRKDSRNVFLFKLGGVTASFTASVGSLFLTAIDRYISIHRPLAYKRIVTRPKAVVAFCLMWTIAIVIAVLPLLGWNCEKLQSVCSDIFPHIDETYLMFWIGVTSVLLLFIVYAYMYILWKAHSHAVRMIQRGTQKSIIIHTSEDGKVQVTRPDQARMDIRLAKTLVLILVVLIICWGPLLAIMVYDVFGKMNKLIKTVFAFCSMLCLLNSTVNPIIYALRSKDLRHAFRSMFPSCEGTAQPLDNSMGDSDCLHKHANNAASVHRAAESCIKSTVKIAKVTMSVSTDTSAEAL", "experiment": "cAMP accumulation in HEK293 cells transfected with AC5, D1AR, CB1R", "assay_type": "cell-based", "procedure": "HEK293 cells were obtained from American Type Culture Collection (Manassas, Va.). Cells were cultured in 225 mL flasks containing 39 mL of MEM containing 10% fetal bovine serum, penicillin (50 μg/mL), streptomycin (50 μg/mL), and neomycin (100 μg/mL). The flasks were maintained in a humidified atmosphere of 95% air and 5% CO2 at about 37° C. Transfection was performed by the method of DNA precipitation with calcium phosphate 1 day after HEK 293 cells were transferred to small flasks (75 mL) at the density of approximately 60 to 80% confluence. Plasmid DNA containing AC5 or AC7 cDNA (11.5 μg), plasmid DNA carrying the human D1A dopamine receptor cDNA (3 μg) and CB1 receptor cDNA (3 μg), and pCMS-EGFP (1 μg) were used for each small flask, which also contained 13 mL of the culture medium. The amount of DNA per flask was adjusted to a total of 26 μg using vector DNA. Transfection efficiency was routinely monitored by observing the expression of enhanced green fluorescent protein (GFP) by an epifluorescence microscope equipped with a filter set (excitation, 480/40 nm; emission, 535/50 nm) and a dichroic mirror (T89002bs; Chroma Technology, Rockingham, Vt.). After transfection, cells were harvested and transferred into 24-well culture plates. The transfected cells were cultured for 1 to 2 days before the cAMP accumulation experiments were carried out.\nAfter labeling and intracellular ATP pool with 3.0 μCi/mL of [2,8-^3H]adenine, cells were incubated in DMEM (0.5 mL/well) without phenol red, buffered to pH 7.1 with 20 mM of 4-(2-hydroxyethyl)-1-piperazineethanesulfonic acid (HEPES) for 30 minutes at 37° C.\nTo determine the effect of the DCUK-OEt or other compounds on the function of the CB1 receptor, the cells were treated with the phosphodiesterase inhibitor, IBMX (500 μM), for 10 minutes at 37° C., followed by the addition of D1A receptor agonist, dopamine (DA) (1 μM), in the presence of a known CB1 agonist or agonist, plus a CB1 antagonist for 5 minutes. The following agonist and antagonist were used: CB1 receptor agonist, ACEA (10 μM); CB1 receptor antagonist, AM251 (10 μM). In additional reactions, the addition of DA was accompanied by addition of DCUK-OEt (10 μM) or DCUK-OEt together with AM251 (10 μM). In a final set of reactions DCUK-OEt was added with ACEA (10 μM), to assess whether DCUK-OEt acted like a CB1 receptor antagonist. The reactions were terminated by adding 50 μL of 100% (w/v) tricholoroacetic acid. ATP and cAMP were separated through Dowex 50 and neutral alumina columns as is known in the art, and quantified by liquid scintillation counting. [α-^32P]ATP and 8-[^14C]cAMP were added as internal standards to monitor the recovery of ATP and cAMP through column chromatography. Conversion of [^3H] ATP into [^3H]cAMP was calculated as follows: [^3H]cAMP (%)=[^3H]cAMP (cpm)/([^3H]ATP (cpm)+[^3H]cAMP (cpm))·100. [^3H]cAMP (%) values obtained from cells which underwent only the 10-minute IBMX incubation period before the addition of trichloroacetic acid, were used as blanks and these values were subtracted from the values obtained from cells which underwent the 1-minute incubation period with DA in the presence or absence of other agonists/antagonists. Each condition was assayed in triplicate and the whole experimental procedure was repeated 4 times. The ratio of cAMP accumulation was calculated for all treatment groups versus DA treatment group (100%) and the values were averaged among the four batches of experiments."}, "[5]": {"conditions": "none = no displacement at 100 μM, read-out: IC50 [3H]BTX binding"}},
  "note": "Where two headings read alike, the source gives them in different places.",
  "data": [
    {"smiles": "O=C(O)c1cc(=O)c2c(Cl)cc(Cl)cc2[nH]1", "note": "[5,7-DCKA, 5,7-dichlorokynurenic acid, reference compound]", "values": [
      {"measurement": "IC50", "setting": "[1]", "value": 0.11, "unit": "µM"},
      {"measurement": "IC50 [3H]BTX binding", "setting": "[2]; none = no displacement at 100 μM", "value": "none"}
    ]},
    {"smiles": "COC(=O)c1cc(NC(=O)N(c2ccccc2)c2ccccc2)c2c(Cl)cc(Cl)cc2n1", "note": "[DCUK-OMe, N,N-diphenyl-4-ureido-5,7-dichloro-2-carboxy quinoline methyl ester]", "values": [
      {"measurement": "IC50 [3H]5,7-DCKA binding", "setting": "[1]", "value": "none"},
      {"measurement": "protection against audiogenic seizures", "setting": "DBA/2 mice", "value": "protection against audiogenic seizures"},
      {"measurement": "IC50", "setting": "[2]; [5]", "value": 25, "unit": "µM"},
      {"measurement": "solubility", "setting": "[3]", "value": "> 100", "unit": "µM"}
    ]},
    {"smiles": "NC(=O)N1c2ccccc2C=Cc2ccccc21", "note": "[CBZ, carbamazepine, reference compound]", "values": [
      {"measurement": "IC50 [3H]5,7-DCKA binding", "setting": "[1]", "value": "none"},
      {"measurement": "Kd", "setting": "[4]", "value": 400, "unit": "µM"},
      {"measurement": "Ki", "setting": "[4]", "value": 14.6, "unit": "µM"},
      {"measurement": "IC50", "setting": "[2]; depolarizing conditions (135 mM KCl), read-out: IC50 [3H]BTX binding under depolarizing conditions (value in parentheses)", "value": 56, "unit": "µM"},
      {"measurement": "IC50", "setting": "[2]; [5]", "value": 71, "unit": "µM"}
    ]},
    {"smiles": "CCCCC/C=C\\C/C=C\\C/C=C\\C/C=C\\CCCC(=O)NCCCl", "note": "[ACEA, reference compound]", "values": [
      {"measurement": "effect on DA stimulated cAMP production with AM251 added", "setting": "CB1 receptor; AM251 10 μM", "value": "the effect of ACEA was reversed"},
      {"measurement": "effect on DA stimulated cAMP production", "setting": "CB1 receptor; dopamine 1 μM, compound 10 μM", "value": "reduced cAMP production"}
    ]}
  ]
}
